Laboratory results from DBAASP.
Values after ≈ are worked out from the molar mass of the structure shown. Values joined by “and” are separate entries in the source; they are usually repeats but may differ in a detail not shown here. Identical values can stand only once.

Assays:
Experiment in all cases: ≥ marks a high value that may be exact or a test limit, other limits are often not marked, values filed in µg/mL are converted to µM
Vibrio alginolyticus = system: Vibrio alginolyticus
[1] = system: Streptococcus pneumoniae BCRC 10794
[2] = system: Vibrio harveyi BCRC 13812
Vibrio vulnificus 204 = system: Vibrio vulnificus 204
[3] = system: Staphylococcus aureus BCRC 10780
[4] = system: Staphylococcus sp. BCRC 10451
Streptococcus agalactiae = system: Streptococcus agalactiae
[5] = system: Micrococcus luteus BCRC 11034
[6] = system: Escherichia coli ATCC 35218
[7] = system: Enterococcus faecalis ATCC 29212
[8] = system: Staphylococcus aureus ATCC 25325
[9] = system: Pseudomonas aeruginosa ATCC 27853
[10] = system: Staphylococcus aureus ATCC 25923
[11] = system: Escherichia coli ATCC 25922
[12] = system: Listeria monocytogenes ATCC 35152
[13] = system: Klebsiella pneumoniae ATCC 13883
[14] = system: Pseudomonas aeruginosa 919
[15] = system: Staphylococcus aureus ATCC 29213
[16] = system: Pseudomonas aeruginosa 253
[17] = system: Staphylococcus epidermidis PIA 8400
Staphylococcus aureus = system: Staphylococcus aureus
[18] = system: Pseudomonas aeruginosa PAO1
[19] = system: Pseudomonas aeruginosa 910
Staphylococcus aureus MR = system: Staphylococcus aureus MR
[20] = system: Neisseria gonorrhoeae FA19
[21] = system: Neisseria gonorrhoeae F62
[22] = system: Staphylococcus epidermidis ATCC 12228
Vibrio cholerae non-O1 = system: Vibrio cholerae non-O1
[23] = system: Salmonella enterica subsp. enterica serovar Typhi DMST 22842
Vibrio cholerae non-O139 = system: Vibrio cholerae non-O139

## CC[C@H](C)[C@H](NC(=O)[C@H](Cc1ccccc1)NC(=O)CNC(C)=O)C(=O)N[C@@H](Cc1ccccc1)C(=O)N[C@@H](Cc1cnc[nH]1)C(=O)N[C@H](C(=O)N[C@H](C(=O)N[C@@H](CCCCN)C(=O)NCC(=O)N[C@@H](CC(C)C)C(=O)N[C@@H](Cc1ccccc1)C(=O)N[C@@H](Cc1cnc[nH]1)C(=O)N[C@@H](C)C(=O)NCC(=O)N[C@@H](CCCCN)C(N)=O)[C@@H](C)CC)[C@@H](C)CC [GFIFHIIKGLFHAGK]
Vibrio alginolyticus
  MIC: 14.8 µM (≈ 25.6 µg/mL)
[1]
  MIC: 29.7 µM (≈ 51.2 µg/mL)
[2]
  MIC: 7.42 µM (≈ 12.8 µg/mL)
Vibrio vulnificus 204
  MIC: ≥ 59.3 µM
[3]
  MIC: 14.8 µM (≈ 25.6 µg/mL)
[4]
  MIC: 3.71 µM (≈ 6.4 µg/mL)
Streptococcus agalactiae
  MIC: 29.7 µM (≈ 51.2 µg/mL)
[5]
  MIC: 14.8 µM (≈ 25.6 µg/mL)

## CC(C)[C@H](NC(=O)[C@H](Cc1cnc[nH]1)NC(=O)[C@H](C)NC(=O)[C@H](C)NC(=O)[C@H](CCCCN)NC(=O)[C@@H](N)CCCCN)C(=O)NCC(=O)N[C@@H](CCCCN)C(=O)N[C@@H](Cc1cnc[nH]1)C(=O)N[C@H](C(=O)NCC(=O)N[C@@H](CCCCN)C(=O)N[C@@H](C)C(=O)N[C@@H](C)C(=O)N[C@@H](CCCCN)C(=O)N[C@@H](CCCCN)C(=O)O)C(C)C [KKAAHVGKHVGKAAKK]
[6]
  MIC: ≥ 56.1 µM
[7]
  MIC: 47.2 µM (≈ 78.3 µg/mL)
[8]
  MIC: ≥ 56.3 µM
[9]
  MIC: 52 µM (≈ 86.2 µg/mL)

## CC(C)C[C@H](NC(=O)[C@H](CCCCN)NC(=O)[C@@H](N)CCCCN)C(=O)NCC(=O)N[C@@H](CCC(=O)O)C(=O)N1CCC[C@H]1C(=O)N[C@@H](CO)C(=O)N[C@@H](CS)C(=O)N[C@@H](CC(N)=O)C(=O)N[C@@H](CCCCN)C(=O)N[C@@H](CC(C)C)C(=O)N[C@@H](CCCCN)C(N)=O [KKLGEPSCNKLK]
[10]
  MIC: 18.6 µM (≈ 25 µg/mL)
[11]
  MIC: 22.3 µM (≈ 30 µg/mL)
[9]
  MIC: 37.2 µM (≈ 50 µg/mL)
[12]
  MIC: 22.3 µM (≈ 30 µg/mL)
[13]
  MIC: 29.7 µM (≈ 40 µg/mL)

## CC[C@H](C)[C@H](NC(=O)[C@H](CCCN=C(N)N)NC(=O)[C@H](Cc1c[nH]c2ccccc12)NC(=O)[C@H](CCCN=C(N)N)NC(=O)[C@H](CCCN=C(N)N)NC(=O)[C@@H](N)CCCCN)C(=O)N[C@@H](Cc1c[nH]c2ccccc12)C(=O)N[C@@H](CC(C)C)C(=O)N[C@H](C(N)=O)C(C)C [KRRWRIWLV]
[14]
  MIC: 4 µM (≈ 5.25 µg/mL)
[11]
  MIC: 6.09 µM (≈ 7.99 µg/mL)
[7]
  MIC: 25.1 µM (≈ 33 µg/mL)
[9]
  MIC: 13 µM and 6.09 µM
[15]
  MIC: 6.09 µM (≈ 7.99 µg/mL)
[16]
  MIC: 5.66 µM (≈ 7.42 µg/mL)
[17]
  MIC: 3.05 µM (≈ 4 µg/mL)
Staphylococcus aureus
  MIC: 6.09 µM (≈ 7.99 µg/mL)
[18]
  MIC: 4 µM (≈ 5.25 µg/mL)
[19]
  MIC: 8 µM (≈ 10.5 µg/mL)
Staphylococcus aureus MR
  MIC: 13 µM and 25.1 µM

## CC(C)C[C@H](N)C(=O)N[C@H](C(=O)N[C@@H](Cc1ccc(O)cc1)C(=O)N[C@H]1CSSC[C@@H](C(=O)N[C@H](C(=O)N[C@H](C(=O)N[C@H](C(N)=O)C(C)C)[C@@H](C)O)C(C)C)NC(=O)[C@H](Cc2ccccc2)NC(=O)[C@H](CCCN=C(N)N)NC(=O)[C@H](CCCN=C(N)N)NC(=O)[C@H](CCCN=C(N)N)NC1=O)[C@@H](C)O [LTYCRRRFCVTV]
[20]
  MIC: 1.37 µM (≈ 2.07 µg/mL)
[21]
  MIC: 0.45 µM (≈ 0.681 µg/mL)

## CC(C)[C@H](NC(=O)CNC(=O)[C@@H](N)CC(N)=O)C(=O)N[C@@H](CCC(N)=O)C(=O)N1CCC[C@H]1C(=O)N[C@@H](Cc1c[nH]c2ccccc12)C(=O)N[C@@H](Cc1ccc(O)cc1)C(=O)N[C@@H](CCCCN)C(=O)N[C@@H](Cc1c[nH]c2ccccc12)C(=O)N[C@@H](Cc1c[nH]c2ccccc12)C(=O)N[C@@H](CCCCN)C(=O)N[C@@H](Cc1c[nH]c2ccccc12)C(=O)N[C@@H](Cc1c[nH]c2ccccc12)C(=O)N[C@@H](CCCCN)C(=O)N[C@@H](CCCCN)C(=O)N[C@@H](Cc1c[nH]c2ccccc12)C(=O)N[C@@H](Cc1c[nH]c2ccccc12)C(N)=O [NGVQPWYKWWKWWKKWW]
[10]
  MIC: > 36.5 µM
[11]
  MIC: > 36.5 µM
[22]
  MIC: 36.5 µM (≈ 91 µg/mL)
Vibrio cholerae non-O1
  MIC: ≥ 36.5 µM
[23]
  MIC: ≥ 36.5 µM
Vibrio cholerae non-O139
  MIC: ≥ 36.5 µM
